Data as given in article PMC7160231, “Identification and Immobilization of an Invertase With High Specific Activity and Sucrose Tolerance Ability of Gongronella sp. w5 for High Fructose Syrup Preparation” (Frontiers in Microbiology, 2020).

Key:
CBM24DG-GspInv = test system: T1, CBM24DG-GspInv; assay: initial rate, released glucose by glucose oxidase method, Michaelis-Menten fit; format: biochemical, Gongronella sp. w5; conditions: 50 mM citrate-phosphate pH 5.0, 45°C, 1 mM-2 M sucrose; free (not immobilised) fusion enzyme
T1 construct: Clostridium thermocellum CBM24 fused to N-terminus of GspInv; secreted from K. pastoris GS115 (pPIC9K)
Excerpt: initial rate, released glucose by glucose oxidase method, Michaelis-Menten fit on CBM24DG-GspInv

GspInv = test system: T2, GspInv; assay: as above; format: biochemical, Gongronella sp. w5; conditions: 50 mM citrate-phosphate pH 5.0, 45°C, 1 mM-2 M sucrose
T2 construct: secreted from Komagataella (Pichia) pastoris GS115 with alpha-factor signal of pPIC9K; cDNA 1,761 bp; primer-encoded N-terminus MVLADP, C-terminus FNRP; catalytic D46, D173, E251
Excerpt: initial rate, released glucose by glucose oxidase method, Michaelis-Menten fit on GspInv

Km (CBM24DG-GspInv): 10.3 ± 1.2 mM | Km (GspInv): 8.7 ± 1.1 mM
Compound: OC[C@H]1O[C@@](CO)(O[C@H]2O[C@H](CO)[C@@H](O)[C@H](O)[C@H]2O)[C@@H](O)[C@@H]1O [sucrose]
